The values below come from US20090186868A1, “Taxane Compound Having Azetidine Ring Structure” (Daiichi Sankyo Company Limited, priority 2005, published 2009).

One data set has as its system B16 melanoma BL6. In words: Antitumor effect in mice subcutaneously transplanted with B16 melanoma BL6. Format: in vivo, Mice (C57BL/6). To be noted: B16 Melanoma BL6, po; MTD/MED. From the text: Mice (C57BL/6, Charles River Japan) were subcutaneously transplanted with B16 melanoma BL6 (Cancer Res., Poste, G., Fidler, I. J. et al., 1980, 40:1636; Bioorg. Med. Chem. Lett., Takeda, Y. et al., 2003, 13:185-190), or M5076 (obtained from Japanese Foundation for Cancer Research), which is a histiocytoma expressing P-gp. Four days after the transplantation in the case of B16 melanoma BL6, or 8 to 10 days after the transplantation in the case of M5076, each test compound suspended in a 0.5% aqueous solution of carboxymethylcellulose sodium, or dissolved in EtOH:Tween 80:5% glucose=5:5:90 (v/v %) was orally (po) or intravenously (iv) administered to the mice. Ten days after the administration in the case of B16 melanoma BL6, or 8 to 10 days after the administration in the case of M5076, the mice were dissected, and tumor weights were measured. The antitumor effect was calculated in accordance with the following equation.
[1−(Average tumor weight of compound administration group/average tumor weight of solvent administration group)]×100
An antitumor effect of 58% or more was considered effective (Int. J. Cancer, 1989, 43:637-44), and the maximum tolerance dose (MTD, maximum dose not causing death, mg/kg) and minimum effective dose (MED, mg/kg) showing effectiveness were obtained, respectively. The therapeutic index was calculated in accordance with the equation: MTD/MED.
ND means that the test was not performed. The effective dose range means the range of from MED to MTD.

Data set [1] in a line: Solubility in first and second solution for disintegration test (Japanese Pharmacopoeia). Format: physicochemical. To be noted: thermodynamic from solid. The method, then:
Solubility of each compound was determined in the first solution for disintegration test according to Japanese Pharmacopoeia (henceforth referred to as the first solution, solution obtained by adding 7 mL of hydrochloric acid and water to 2.00 g of sodium chloride to dissolve sodium chloride and fill up the solution to 1000 mL, pH 1.2) and the second solution for disintegration test according to Japanese Pharmacopoeia (henceforth referred to as the second solution, solution obtained by adding 118 mL of 0.2 mol/L solution of sodium hydroxide to 6.80 g of potassium dihydrogenphosphate, adding water to the mixture to dissolve potassium dihydrogenphosphate and filling up the solution to 1000 mL, pH 6.8).
Each test compound was dissolved in 100% dimethyl sulfoxide (DMSO) at a concentration of 10 mM, and 50 μL of the solution was lyophilized. The lyophilized test compound was added with 250 μL of the first solution or second solution, and the mixture was stored at room temperature for 12 hours or longer under light shielding, and filtered (0.7 μm). The filtrate was taken in a volume of 90 μL, and added with 50% DMSO (90 μL) to obtain a two-fold diluted solubility sample. The two-fold dilution solubility sample was taken in a volume of 20 μL, and added with 50% DMSO (180 μL) to obtain a […] diluted solubility sample. Solubility of each test sample was determined by quantifying the test compound in the resulting diluted solubility test samples using high-performance liquid chromatography.

The mark [2] stands for this setting: aqueous buffer, second solution for disintegration test, pH 6.8, room temperature, 12 hours or longer, read-out: Solubility (μg/mL) pH 6.8.
[3] abbreviates: simulated gastric fluid, first solution for disintegration test, pH 1.2, room temperature, 12 hours or longer, read-out: Solubility (μg/mL) pH 1.2.

The structures appear in SMILES notation. Values after ≈ are worked out from the molar mass of the structure shown. Read-outs that look alike come from different tables or passages of the source. Where only a bound is given, the exact number is not on record here.

Take `CC(=O)O[C@@]12CO[C@@H]1CC[C@@]1(C)[C@@H]3O[C@H](CN4CC(C(=O)N(C)C)C4)O[C@@H]3C3=C(C)[C@@H](OC(=O)[C@H](O)[C@@H](NC(=O)OC(C)(C)C)c4ccccn4)C[C@@](O)([C@@H](OC(=O)c4ccccc4)[C@@H]12)C3(C)C` [Example 9, (1S,2S,3R,4S,5R,8R,9S,10R,13S)-4-(Acetoxy)-2-(benzoyloxy)-9,10-{(1S)-[2-(3-dimethylcarbamoyl)azetidino]ethylidenedioxy}-5,20-epoxy-1-hydroxytax-11-en-13-yl (2R,3S)-3-(tert-butoxycarbonylamino)-2-hydroxy-3-(2-pyridyl)propionate]: in the data set with B16 melanoma BL6, the Therapeutic index was found to be 6.0. In addition, the solubility was 130 µg/mL (≈ 137 µM) in data set [1] (setting [2]) and 1400 µg/mL (≈ 1480 µM) in data set [1] (setting [3]).
For the molecule `CC(=O)O[C@@]12CO[C@@H]1CC[C@@]1(C)[C@@H]3O[C@H](CN4CC(C)(O)C4)O[C@@H]3C3=C(C)[C@@H](OC(=O)[C@H](O)[C@@H](NC(=O)OC(C)(C)C)c4ncccc4F)C[C@@](O)([C@@H](OC(=O)c4ccccc4)[C@@H]12)C3(C)C` [Example 12, (1S,2S,3R,4S,5R,8R,9S,10R,13S)-4-(Acetoxy)-2-(benzoyloxy)-5,20-epoxy-1-hydroxy-9,10-[(1S)-2-(3-hydroxy-3-methylazetidino)ethylidenedioxy]tax-11-en-13-yl (2R,3S)-3-(tert-butoxycarbonylamino)-3-(3-fluoro-2-pyridyl)-2-hydroxypropionate], the Therapeutic index in the data set with B16 melanoma BL6 is on record as 4.1. The solubility in data set [1] (setting [2]) was 92 µg/mL (≈ 99.6 µM); in data set [1] (setting [3]) it was 1100 µg/mL (≈ 1190 µM).
On to `CC(=O)O[C@@]12CO[C@@H]1CC[C@@]1(C)[C@@H]3O[C@H](CN4CC[C@H]4CO)O[C@@H]3C3=C(C)[C@@H](OC(=O)[C@H](O)[C@@H](NC(=O)OC(C)(C)C)c4ccccn4)C[C@@](O)([C@@H](OC(=O)c4ccccc4)[C@@H]12)C3(C)C` [Example 21, (1S,2S,3R,4S,5R,8R,9S,10R,13S)-4-(Acetoxy)-2-(benzoyloxy)-5,20-epoxy-1-hydroxy-9,10-{(1S)-2-[(2S)-2-hydroxymethylazetidino]ethylidenedioxy}tax-11-en-13-yl (2R,3S)-3-(tert-butoxycarbonylamino)-2-hydroxy-3-(2-pyridyl)propionate], for which the Therapeutic index in the data set on B16 melanoma BL6 amounted to 5.9. Moreover, the solubility in data set [1] (setting [2]) is 150 µg/mL (≈ 166 µM); in data set [1] (setting [3]), > 1000 µg/mL.
Regarding `CC(=O)O[C@@]12CO[C@@H]1CC[C@@]1(C)[C@@H]3O[C@H](CN4CC[C@H]4C(=O)N(C)C)O[C@@H]3C3=C(C)[C@@H](OC(=O)[C@H](O)[C@@H](NC(=O)OC(C)(C)C)c4ccccn4)C[C@@](O)([C@@H](OC(=O)c4ccccc4)[C@@H]12)C3(C)C` [Example 23, (1S,2S,3R,4S,5R,8R,9S,10R,13S)-4-(Acetoxy)-2-(benzoyloxy)-9,10-{(1S)-2-[(2S)-2-(dimethylcarbamoyl)azetidino]ethylidenedioxy}-5,20-epoxy-1-hydroxytax-11-en-13-yl (2R,3S)-3-(tert-butoxycarbonylamino)-2-hydroxy-3-(2-pyridyl)propionate], the Therapeutic index with B16 melanoma BL6 was 2.9. Also, the solubility is 1400 µg/mL (≈ 1480 µM) in data set [1] (pH 1.2, simulated gastric fluid) and 360 µg/mL (≈ 380 µM) in data set [1] (pH 6.8, aqueous buffer).
In the data set on B16 melanoma BL6, `CC(=O)O[C@@]12CO[C@@H]1CC[C@@]1(C)[C@@H]3O[C@H](CN4CC(S(C)(=O)=O)C4)O[C@@H]3C3=C(C)[C@@H](OC(=O)[C@H](O)[C@@H](NC(=O)OC(C)(C)C)c4ncccc4F)C[C@@](O)([C@@H](OC(=O)c4ccccc4)[C@@H]12)C3(C)C` [Example 28, (1S,2S,3R,4S,5R,8R,9S,10R,13S)-4-(Acetoxy)-2-(benzoyloxy)-5,20-epoxy-1-hydroxy-9,10-{(1S)-2-[3-(methanesulfonyl)azetidino]ethylidenedioxy}tax-11-en-13-yl (2R,3S)-3-(tert-butoxycarbonylamino)-3-(3-fluoro-2-pyridyl)-2-hydroxypropionate] yielded a Therapeutic index of 4.2. The solubility is 18 µg/mL (≈ 18.5 µM) in data set [1] (setting [2]) and 1300 µg/mL (≈ 1340 µM) in data set [1] (setting [3]).
